Assay results published in US9023789B2, “Amylin analogs and pharmaceutical compositions thereof” (Novo Nordisk A/S, priority 2012, dated 2015).
Numbered stars: 1 amine (or outer) side, 2 acyl side, 3 side chain; on linkers, the order of the positions; unused ones are H or OH. Bridge positions count the residues as written; N and C are the ends. Side chains are listed from the residue outwards. Peptide text beside a SMILES is read from it. * marks the point of attachment. C20 diacid = O=C(O)CCCCCCCCCCCCCCCCCCC(=O)*; γGlu = O=C(O)[C@H](CCC(=O)[*:2])N[*:1]

What was measured:
Sprague Dawley (SD) rats = experiment: ASSAY (I) efficacy testing on appetite (food intake) using an ad libitum fed rat model; format: in vivo; conditions: rat, 30 nmol/kg
Method in brief: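 Ad libitum fed SD rats (200–250 g) were housed singly on a reversed light/dark cycle and given one 0.01–3 mg/kg dose ip, po or sc just before lights-off, with 5–8 per dose group plus vehicle controls. Food intake was recorded hourly for 7 h, then at 24 h and sometimes 48 h; Grubbs outliers were excluded.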

[1] = molecular target: T1, human amylin 3(a) receptor (human calcitonin receptor + RAMP-3) in BHK570 cells (Homo sapiens, UniProt O60896+P30988); experiment: ASSAY (II)a functional assay, human amylin receptor (CRE luciferase); format: cell-based
T1 construct: expressed in transfected cells
Method in brief: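 Cells were seeded and cultured overnight, then incubated with standard or sample for 3 h at 37° C in serum-containing medium at pH 7.4. The medium was then swapped for PBS, LucLite was added for 30 min at room temperature, and luminescence was recorded. Cells were BHK with CRE-luc and calcitonin receptor, ± RAMP-3.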

[2] = molecular target: T2, human amylin receptor (membranes from Amylin 3(a)/CRE-luc cells) (Homo sapiens, UniProt O60896+P30988); experiment: ASSAY (V) binding to the human amylin receptor (SPA, 125I-rat amylin);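 also: competition binding of cell membranes (35 ng/µL) mixed with SPA beads in 384-well plates at 40 µL total volume, read by scintillation counting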
T2 construct: expressed in transfected cells
T2 sequence (P30988 25-474): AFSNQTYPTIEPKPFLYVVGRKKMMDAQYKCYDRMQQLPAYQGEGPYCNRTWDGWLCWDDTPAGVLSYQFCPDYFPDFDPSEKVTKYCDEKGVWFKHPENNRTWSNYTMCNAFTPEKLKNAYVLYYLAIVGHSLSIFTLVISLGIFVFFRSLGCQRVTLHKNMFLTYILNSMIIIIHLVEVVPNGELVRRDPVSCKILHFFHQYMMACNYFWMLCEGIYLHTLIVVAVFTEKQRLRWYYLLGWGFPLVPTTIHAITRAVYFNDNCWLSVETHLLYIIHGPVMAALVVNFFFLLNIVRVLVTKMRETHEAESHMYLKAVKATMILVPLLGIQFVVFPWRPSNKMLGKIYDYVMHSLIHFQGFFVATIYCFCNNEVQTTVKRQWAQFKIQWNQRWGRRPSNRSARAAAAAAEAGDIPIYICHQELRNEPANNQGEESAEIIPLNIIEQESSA
T2 sequence (O60896 24-148 partner): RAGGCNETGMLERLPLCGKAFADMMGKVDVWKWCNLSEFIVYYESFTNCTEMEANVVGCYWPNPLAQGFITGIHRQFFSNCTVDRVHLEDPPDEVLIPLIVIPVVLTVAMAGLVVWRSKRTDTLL
Procedure: The binding assay was performed using scintillation proximity assay (SPA) beads (RPNQ0001) from PerkinElmer and cell membranes from the Amylin 3(a)/CRE-luc cells (as described in Assay (II)) were used. Membranes were prepared in the following way; the cells were rinsed with PBS and incubated with Versene for approximately 5 min before harvesting. The cells were flushed with PBS and the cell-suspension was centrifuged for 5 min at 1000 rpm. […] The resulting pellet was resuspended in buffer 2 and protein concentration was measured (BCA protein Assay, Pierce). The homogenate was kept cold during the whole procedure. The membranes were kept at −80° C. until use. The assay was performed in a 384 well Optiplate (PerkinElmer) in a total volume of 40 ul. Membranes were mixed with SPA beads. Final concentration of membranes 35 ng/μL final and SPA beads was 0.05 mg/well. Test-compounds were dissolved in DMSO and further diluted in assay buffer (50 mM Hepes, pH 7.4, 1 mM CaCl2, 5 mM MgCl2, 0.1% OA and 0.02% Tween20). […] Samples were analyzed on TopCounter™ (Packard). The IC50 was calculated using (one site binding competition analysis) GraphPad Prism5 as a measure of receptor affinity.

rat calcitonin receptor = molecular target: T3, rat calcitonin receptor (Rattus norvegicus, UniProt P32214); experiment: ASSAY (VIII) binding to the rat calcitonin receptor; conditions: Table 7, read-out: rCTR bind IC50
T3 construct: expressed in transfected cells; host or cells: BHK tk'ts 13 (transient, FuGENE 6), membranes
T3 sequence (P32214 25-479 isoform P32214-2 limits assumed): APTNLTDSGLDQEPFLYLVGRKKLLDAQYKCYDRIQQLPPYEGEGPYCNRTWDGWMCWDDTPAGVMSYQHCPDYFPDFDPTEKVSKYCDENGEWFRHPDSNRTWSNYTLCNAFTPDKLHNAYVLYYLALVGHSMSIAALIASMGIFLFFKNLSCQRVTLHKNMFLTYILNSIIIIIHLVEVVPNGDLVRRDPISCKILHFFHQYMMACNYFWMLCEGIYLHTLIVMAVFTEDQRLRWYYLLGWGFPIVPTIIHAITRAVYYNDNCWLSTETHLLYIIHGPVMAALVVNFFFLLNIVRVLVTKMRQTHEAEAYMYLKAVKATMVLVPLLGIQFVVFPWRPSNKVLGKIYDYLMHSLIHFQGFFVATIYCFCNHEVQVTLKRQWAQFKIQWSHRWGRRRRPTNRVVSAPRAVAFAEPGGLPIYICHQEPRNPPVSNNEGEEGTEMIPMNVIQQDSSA
Method in brief: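 Transfect BHK tk′ts 13 cells transiently with rat calcitonin receptor, culture in DMEM containing 10% FBS, collect cells about 48 hours later, then prepare membranes.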

[3] = hCTR funct. EC50 divided by hAmylin-R funct. EC50
[4] = hCTR funct. EC50 over hAmylin-R funct. EC50
[5] = human functional selectivity: hCTR funct. EC50 / hAmylin-R funct. EC50
[6] = Table 5, selectivity, hCTR bind IC50 / hAmylin-R bind IC50
[7] = Table 5a, selectivity, hCTR bind IC50 / hAmylin-R bind IC50
[8] = Table 5b, selectivity, hCTR bind IC50 / hAmylin-R bind IC50
[9] = Table 5c, selectivity, hCTR bind IC50 / hAmylin-R bind IC50
[10] = Table 7, human binding selectivity, included for comparison
[11] = Table 7a (preferred compounds), human binding selectivity, included for comparison
[12] = ratio of human calcitonin receptor binding IC50 to human amylin receptor binding IC50

| SMILES | Food intake reduction 0-24 h 30 nmol/kg (%) (Sprague Dawley (SD) rats) | Food intake reduction 24-48 h 30 nmol/kg (%) (Sprague Dawley (SD) rats) | Ratio hCT/hAmylin funct. [1, 3] | Ratio hCT/hAmylin funct. [1, 4] | Ratio hCT/hAmylin funct. [1, 5] | Ratio hCT/hAmylin binding [2, 6] | Ratio hCT/hAmylin binding [2, 7] | Ratio hCT/hAmylin binding [2, 8] | Ratio hCT/hAmylin binding [2, 9] | Ratio hCT/hAmylin binding [2, 10] | Ratio hCT/hAmylin binding [2, 11] | Ratio hCT/hAmylin binding [2, 12] | IC50 (rat calcitonin receptor) [nM] |
| --- | --- | --- | --- | --- | --- | --- | --- | --- | --- | --- | --- | --- | --- |
| CC[C@H](C)[C@H](NC(=O)[C@H](C)NC(=O)CNC(=O)[C@H](Cc1ccccc1)NC(=O)[C@H](CC(N)=O)NC(=O)[C@@H]1CCCN1C(=O)[C@H](CO)NC(=O)[C@H](CO)NC(=O)[C@H](Cc1c[nH]cn1)NC(=O)[C@H](CCCNC(=N)N)NC(=O)[C@H](CC(C)C)NC(=O)[C@H](Cc1ccccc1)NC(=O)[C@H](CC(N)=O)NC(=O)[C@H](C)NC(=O)[C@H](CC(C)C)NC(=O)[C@H](CCCNC(=N)N)NC(=O)[C@H](CCC(N)=O)NC(=O)[C@@H](NC(=O)[C@H](C)NC(=O)[C@@H]1CSSC[C@H](NC(=O)[C@@H](N)CCCCNC(=O)CC[C@H](NC(=O)CCCCCCCCCCCCCCC(=O)O)C(=O)O)C(=O)N[C@@H](CC(N)=O)C(=O)N[C@@H]([C@@H](C)O)C(=O)N[C@@H](C)C(=O)N[C@@H]([C@@H](C)O)C(=O)N1)[C@@H](C)O)C(=O)N1CCC[C@H]1C(=O)N[C@@H](CO)C(=O)N[C@@H](CO)C(=O)N[C@H](C(=O)N[C@@H](CC(N)=O)C(=O)N[C@H](C(=O)NCC(=O)N[C@@H](Cc1c[nH]cn1)C(=O)N[C@@H](CC(N)=O)C(=O)N[C@H](C(=O)N[C@@H](Cc1ccc(O)cc1)C(N)=O)[C@@H](C)O)C(C)C)[C@@H](C)O [Example 111] | 17 | 0 | 65.1 | 65.1 | 65.1 | 18.5 | 18.5 | 18.5 | 18.5 | 18.5 | 18.5 | 18.5 | 404 |
| CC[C@H](C)[C@H](NC(=O)[C@H](C)NC(=O)CNC(=O)[C@H](Cc1ccccc1)NC(=O)[C@H](CC(N)=O)NC(=O)[C@@H]1CCCN1C(=O)[C@H](CO)NC(=O)[C@H](CO)NC(=O)[C@H](Cc1c[nH]cn1)NC(=O)[C@H](CCCNC(=N)N)NC(=O)[C@H](CC(C)C)NC(=O)[C@H](Cc1ccccc1)NC(=O)[C@H](CC(N)=O)NC(=O)[C@H](C)NC(=O)[C@H](CC(C)C)NC(=O)[C@H](CCCNC(=N)N)NC(=O)[C@H](CCC(N)=O)NC(=O)[C@@H](NC(=O)[C@H](C)NC(=O)[C@@H]1CSSC[C@H](NC(=O)[C@@H](N)CCCCNC(=O)CC[C@H](NC(=O)CCCCCCCCCCCCCCCCC(=O)O)C(=O)O)C(=O)N[C@@H](CC(N)=O)C(=O)N[C@@H]([C@@H](C)O)C(=O)N[C@@H](C)C(=O)N[C@@H]([C@@H](C)O)C(=O)N1)[C@@H](C)O)C(=O)N1CCC[C@H]1C(=O)N[C@@H](CO)C(=O)N[C@@H](CO)C(=O)N[C@H](C(=O)N[C@@H](CC(N)=O)C(=O)N[C@H](C(=O)NCC(=O)N[C@@H](Cc1c[nH]cn1)C(=O)N[C@@H](CC(N)=O)C(=O)N[C@H](C(=O)N[C@@H](Cc1ccc(O)cc1)C(N)=O)[C@@H](C)O)C(C)C)[C@@H](C)O [Example 113] | 48 | 2 | 60.9 | 60.9 | 60.9 | 59.4 | 59.4 | 59.4 | 59.4 | 59.4 | 59.4 | 59.4 | 47 |
| CC[C@H](C)[C@H](NC(=O)[C@H](C)NC(=O)CNC(=O)[C@H](Cc1ccccc1)NC(=O)[C@H](CC(N)=O)NC(=O)[C@@H]1CCCN1C(=O)[C@H](CO)NC(=O)[C@H](CO)NC(=O)[C@H](Cc1c[nH]cn1)NC(=O)[C@H](CCCNC(=N)N)NC(=O)[C@H](CC(C)C)NC(=O)[C@H](Cc1ccccc1)NC(=O)[C@H](CCC(=O)O)NC(=O)[C@H](C)NC(=O)[C@H](CC(C)C)NC(=O)[C@H](CCCNC(=N)N)NC(=O)[C@H](CCC(N)=O)NC(=O)[C@@H](NC(=O)[C@H](C)NC(=O)[C@@H]1CSSC[C@H](NC(=O)[C@@H](N)CCCCNC(=O)CC[C@H](NC(=O)CCCCCCCCCCCCCCCCCCC(=O)O)C(=O)O)C(=O)N[C@@H](CC(N)=O)C(=O)N[C@@H]([C@@H](C)O)C(=O)N[C@@H](C)C(=O)N[C@@H]([C@@H](C)O)C(=O)N1)[C@@H](C)O)C(=O)N1CCC[C@H]1C(=O)N[C@@H](CO)C(=O)N[C@@H](CO)C(=O)N[C@H](C(=O)N[C@@H](CC(N)=O)C(=O)N[C@H](C(=O)NCC(=O)N1CCC[C@H]1C(=O)N[C@@H](CCCNC(=N)N)C(=O)N[C@H](C(=O)N[C@@H](Cc1ccc(O)cc1)C(N)=O)[C@@H](C)O)C(C)C)[C@@H](C)O [Example 117] (H-K([γGlu-C20 diacid])CNTATCATQRLAEFLRHSSPNFGAIPSSTNVGPRTY-NH2; disulfide 2-7; N-terminus assumed) | 61 | 4 | 17.0 | 17.0 | 17.0 | 38.6 | 38.6 | 38.6 | 38.6 | 38.6 | 38.6 | 38.6 | 15.4 |
